Test results as given in patent publication US20240366539A1, “METHODS FOR TREATING AUTISM SPECTRUM DISORDERS” (INSTITUT NATIONAL DE LA SANTÉ ET DE LA RECHERCHE MÉDICALE, priority 2021, published 2024).

Columns and labels:
Shank3^Δex13-16−/− mice [1] = assay: Direct social interaction test; assay type: in vivo, mouse; conditions: Shank3Δex13-16−/− mice
Description: (§1) Mice were treated with vehicle (NaCl 0.9%; ip, 10 or 20 ml/kg), NaBr (Sigma-Aldrich, Saint-Quentin Fallavier, France) administered either chronically (once a day, 10, 30, 70, 125, 250 and 500 mg/kg; i.p. or per os, in a volume of 20 ml/kg—except for combination with VU0155041: […]) or acutely (250 mg/kg, 20 ml/kg), KBr (Sigma-Aldrich, Saint-Quentin Fallavier, France; 145 mg/kg; i.p., 20 ml/kg), bumetanide (R&D systems, Minneapolis, USA, 0.5 and 2 mg/kg; i.p., 20 ml/kg) or VU0155041 (Cayman Chemicals, Ann Arbor, USA, once a day, i.p., 1 mg/kg, 10 ml/kg). […] When treatment was given chronically, behavioral testing started 8 days after beginning of daily administration. Treatment was maintained for 8 to 18 consecutive days (see timelines in FIGS. 1 and 4), allowing thorough behavioral phenotyping. On testing days, or when treatment was given acutely, drugs (or vehicle) were administered 30 min before behavioral assays.
Direct social interaction test. On testing day, a pair of unfamiliar mice (not cage mates, age-, sex- and treatment-matched) was introduced in each arena for 10 min (15 lx). Each arena received a black plastic floor (transparent to infrared). […] The mean duration of nose and paw contacts was calculated from previous data (61-63).
(§2) To this purpose, we evaluated the effects of chronic NaBr administration at the dose of 250 mg/kg on autism-sensitive behaviors in these lines (FIG. 3A).

Shank3^Δex13-16−/− mice [2] = assay: Motor stereotypies; assay type: in vivo, mouse; conditions: Shank3Δex13-16−/− mice; chronic NaBr 250 mg/kg once daily
Description: as §1
(§3) Motor stereotypies. To detect motor stereotypies in mutant versus wild-type animals, mice were individually placed in clear standard home cages (21×11×17 cm) filled with 3-cm deep fresh sawdust for 10 min (64). Light intensity was set at 30 lux. Trained experimenters scored numbers of head shakes, as well as rearing, burying, grooming, circling episodes and total time spent burying by direct observation.
as §2

Fmr1^−/− mice = assay: Motor stereotypies; assay type: in vivo, mouse; conditions: chronic NaBr 250 mg/kg once daily
Description: as §1, §3, §2

rat mGlu4 receptor = target: T1, rat mGlu4 receptor (Rattus norvegicus, UniProt P31423); assay: Calcium mobilization assay, mGlu4 signaling under glutamate stimulation; assay type: cell-based
T1 construct: expressed in transfected cells
T1 sequence (P31423 33-912): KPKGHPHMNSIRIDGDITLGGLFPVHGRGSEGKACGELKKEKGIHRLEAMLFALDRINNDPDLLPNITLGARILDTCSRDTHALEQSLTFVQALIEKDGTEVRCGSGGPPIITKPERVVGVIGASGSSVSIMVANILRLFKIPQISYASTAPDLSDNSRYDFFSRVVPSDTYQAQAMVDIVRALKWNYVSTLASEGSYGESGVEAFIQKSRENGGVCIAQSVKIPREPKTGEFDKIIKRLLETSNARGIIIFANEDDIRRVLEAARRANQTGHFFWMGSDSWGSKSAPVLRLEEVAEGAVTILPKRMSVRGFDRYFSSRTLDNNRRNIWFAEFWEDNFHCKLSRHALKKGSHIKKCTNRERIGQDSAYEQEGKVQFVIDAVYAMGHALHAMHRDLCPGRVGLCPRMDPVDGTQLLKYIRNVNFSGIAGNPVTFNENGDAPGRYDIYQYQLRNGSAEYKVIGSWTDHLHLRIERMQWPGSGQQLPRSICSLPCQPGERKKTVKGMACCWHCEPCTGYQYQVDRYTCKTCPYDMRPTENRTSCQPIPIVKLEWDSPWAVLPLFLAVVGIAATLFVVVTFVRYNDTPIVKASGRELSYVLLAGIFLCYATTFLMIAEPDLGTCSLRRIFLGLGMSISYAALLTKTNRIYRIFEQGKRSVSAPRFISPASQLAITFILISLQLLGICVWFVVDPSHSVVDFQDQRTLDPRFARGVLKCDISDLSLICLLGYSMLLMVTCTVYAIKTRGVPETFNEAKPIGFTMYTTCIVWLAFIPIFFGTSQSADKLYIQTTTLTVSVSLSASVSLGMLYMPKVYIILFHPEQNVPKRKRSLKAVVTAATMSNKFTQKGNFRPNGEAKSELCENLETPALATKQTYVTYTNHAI
Description: Human embryonic kidney (HEK) 293 cells were transiently transfected with rat mGlu4 receptor by electroporation together with a chimeric Gi/Gq protein to allow phospholipase activation and EAAC1, a glutamate transporter, to avoid influence of extracellular glutamate. For calcium mobilization, cells were seeded in a PLO-coated, black-walled, clear-bottomed. 96-well plate (Greiner Bio-One) at the density of 100,000 cells per well and for IPOne assay in a PLO-coated black 96-well plate (Greiner Bio-One) at the density of 50,000 cells per well. Cells were cultured in DMEM (Gibco™, Life Technologies), supplemented with 10% fetal bovine serum. Medium was changed by GlutaMAX (Gibco™, Life Technologies) to reduce extracellular glutamate concentration 3 h before experiment.
Chloride and bromide ion concentrations in the buffers used for in vitro experiments were chosen for best matching physiological conditions. It was previously shown that the total amount of halogen (chloride and bromide ions) in the cerebrospinal fluid and serum can reach 120-130 mM (69, 70) and that bromide is able to substitute up to 30% of chloride concentration (71), leading to a theoretical concentration of 91 mM chloride and 36 mM bromide. We thus chose the dose of 100 mM chloride as physiological control (complemented with gluconate NaC6H11O7 to maintain equivalent osmolarity between buffers (56)), and added or not 50 mM chloride or bromide to assess their effects in vitro. Chemicals were purchased from Sigma-Aldrich (Merck, L'Isle D'Abeau Chesnes, France). The pH of all buffers was adjusted to 7.4 before experiments. […]
Calcium mobilization assay: 24 h after transfection, cells were loaded with 1 μM calcium-sensitive fluorescent dye (Fluo-4 AM; Invitrogen, Life Technologies) diluted in fresh C1^− buffer (154.6 mM) for 1 h at 37° C. and 5% CO2. […] Ca^2+ release was determined using μCell FDSS (Hamamatsu Photonics). Fluoresence was recorded for 60 s at 480 nm excitation and 540 nm emission after 20 s record of baseline.
Data were analyzed using Prism 6 software (GraphPad Software, San Diego, CA, USA). […] Statistical differences between pEC50, ΔpEC50 and Emax were determined using a one-way analysis of variance followed by Tukey's post-test.
We measured mGlu4 signaling under glutamate stimulation in HEK293T cells transiently expressing mGlu4 receptors and Gαqi9, a Gi/Gq chimeric G-protein (57) that allows mGlu4 to activate the phosphoinositide pathway. Receptor activation was then evaluated by measuring intracellular Ca^2+ release or inositol monophosphate (IP1, FIG. 5A). […]

[3] = chronic NaBr 250 mg/kg once daily
[4] = one week after interruption of NaBr 250 mg/kg

## [Br-].[Na+] [NaBr, sodium bromide]
Shank3^Δex13-16−/− mice [1]; [3]
  duration of nose contacts: restored the duration of nose
  duration of paw contacts: restored
  grooming after social contact: suppressed grooming after social contact
  number of following episodes: normalized the number of following episodes
Shank3^Δex13-16−/− mice [1]; [4]
  duration of paw contacts: no effect of previous bromide treatment was longer detected
  grooming after social contact: remained efficiently suppressed
Shank3^Δex13-16−/− mice [2]
  circling episodes: normalized all these parameters to WT levels
  head shakes: normalized all these parameters to WT levels
  spontaneous grooming: normalized all these parameters to WT levels
Fmr1^−/− mice
  circling episodes: normalized all these parameters to WT levels
  head shakes: normalized all these parameters to WT levels
Rat mGlu4 receptor; HEK293 cells, mGlu4 + Gαqi9, addition of 50 mM bromide versus physiological chloride (100 mM Cl− + 50 mM gluconate)
  increase in glutamate pEC50: 0.73±0.05 log
Rat mGlu4 receptor; HEK293 cells, mGlu4 + Gαqi9, compared with +50 mM Cl−
  ΔpEC50 of glutamate, bromide versus equivalent concentration of chloride: 0.27±0.04
Rat mGlu4 receptor; HEK293 cells, mGlu4 + Gαqi9, glutamate, bromide versus physiological chloride
  rise in maximal mGlu4-triggered calcium release (Emax): 65±9%
Rat mGlu4 receptor; calcium mobilization assay, 100 mM Cl− + 50 mM Br−, broader effects than chloride ions on pEC50 and Emax
  modulation of mGlu4 (PAM behaviour): behave as PAM of mGlu4
